Results from ChEMBL document CHEMBL5576135, “Discovery of Indolo[3,2-c]isoquinoline Derivatives as Novel Top1/2 Dual Inhibitors with Orally Efficacious Antitumor Activity and Low Toxicity” (J Med Chem, 2024).

Test system: HCT-116
Assay: Antiproliferative activity against human HCT-116 cells assessed as inhibition of cell growth incubated for 96 hrs by MTT based ELISA
Format: functional
Details: HCT-116, 96 h

Row | Compound | IC50 [µM]
1 | CCOc1ccc2c(c1)c1ncc3ccccc3c1n2CCCC(=O)NO | 1.38
2 | COc1ccc2c(c1)c1nc(Cl)c3ccccc3c1n2CCCN1CCN(C(C)C)CC1 | 1.79
3 | O=C(CCCn1c2ccccc2c2nc(Cl)c3ccccc3c21)NO | 2.87
4 | CCOc1ccc2c(c1)c1nc(Cl)c3ccccc3c1n2CCCC(=O)NO | 1.8

The remaining lines, values ahead:

Row | IC50 [µM] | Compound
5 | > 10 | COc1ccc2c(c1)c1nc(Cl)c3ccccc3c1n2CCCn1c(=O)c(F)cn([C@@H]2O[C@H](CO)[C@@H](O)[C@H]2O)c1=O
6 | 3.68 | COc1ccc2c(c1)c1nc(Cl)c3ccccc3c1n2CCCN1CCCC(O)C1 (stereo not drawn)
7 | > 10 | COc1ccc2c(c1)c1nc(Cl)c3ccccc3c1n2CCCN1CCC(CO)CC1
8 | > 10 | COc1ccc2c(c1)c1nc(Cl)c3ccccc3c1n2CCCn1c(=O)[nH]cc(F)c1=O

Test system: MDA-MB-231
Assay: Antiproliferative activity against human MDA-MB-231 cells assessed as inhibition of cell growth incubated for 96 hrs by MTT based ELISA
Format: functional
Details: MDA-MB-231, 96 h

Row | Compound | IC50 [µM]
9 | CCOc1ccc2c(c1)c1ncc3ccccc3c1n2CCCC(=O)NO | 0.8
10 | COc1ccc2c(c1)c1nc(Cl)c3ccccc3c1n2CCCN1CCN(C(C)C)CC1 | 2.52
11 | O=C(CCCn1c2ccccc2c2nc(Cl)c3ccccc3c21)NO | 2.98
12 | CCOc1ccc2c(c1)c1nc(Cl)c3ccccc3c1n2CCCC(=O)NO | 1.92

More lines, now with the values ahead:

Row | IC50 [µM] | Compound
13 | > 10 | COc1ccc2c(c1)c1nc(Cl)c3ccccc3c1n2CCCn1c(=O)c(F)cn([C@@H]2O[C@H](CO)[C@@H](O)[C@H]2O)c1=O
14 | 5.04 | COc1ccc2c(c1)c1nc(Cl)c3ccccc3c1n2CCCN1CCCC(O)C1 (stereo not drawn)
15 | > 10 | COc1ccc2c(c1)c1nc(Cl)c3ccccc3c1n2CCCN1CCC(CO)CC1
16 | > 10 | COc1ccc2c(c1)c1nc(Cl)c3ccccc3c1n2CCCn1c(=O)[nH]cc(F)c1=O

Test system: Huh-7
Assay: Antiproliferative activity against human Huh-7 cells assessed as inhibition of cell growth incubated for 96 hrs by MTT based ELISA
Format: functional
Details: Huh-7, 96 h

Row | Compound | IC50 [µM]
17 | CCOc1ccc2c(c1)c1ncc3ccccc3c1n2CCCC(=O)NO | 3.41
18 | COc1ccc2c(c1)c1nc(Cl)c3ccccc3c1n2CCCN1CCN(C(C)C)CC1 | 2.26
19 | O=C(CCCn1c2ccccc2c2nc(Cl)c3ccccc3c21)NO | 5.76
20 | CCOc1ccc2c(c1)c1nc(Cl)c3ccccc3c1n2CCCC(=O)NO | 3.92

Other lines, results leading:

Row | IC50 [µM] | Compound
21 | > 10 | COc1ccc2c(c1)c1nc(Cl)c3ccccc3c1n2CCCn1c(=O)c(F)cn([C@@H]2O[C@H](CO)[C@@H](O)[C@H]2O)c1=O
22 | 4.57 | COc1ccc2c(c1)c1nc(Cl)c3ccccc3c1n2CCCN1CCCC(O)C1 (stereo not drawn)
23 | > 10 | COc1ccc2c(c1)c1nc(Cl)c3ccccc3c1n2CCCN1CCC(CO)CC1
24 | > 10 | COc1ccc2c(c1)c1nc(Cl)c3ccccc3c1n2CCCn1c(=O)[nH]cc(F)c1=O

Test system: NCI-H2228
Assay: Antiproliferative activity against human NCI-H2228 cells assessed as inhibition of cell growth incubated for 96 hrs by MTT based ELISA
Format: functional
Details: NCI-H2228, 96 h

Row | Compound | IC50 [µM]
25 | CCOc1ccc2c(c1)c1ncc3ccccc3c1n2CCCC(=O)NO | 3.06
26 | COc1ccc2c(c1)c1nc(Cl)c3ccccc3c1n2CCCN1CCN(C(C)C)CC1 | 2.36
27 | O=C(CCCn1c2ccccc2c2nc(Cl)c3ccccc3c21)NO | 4.28
28 | CCOc1ccc2c(c1)c1nc(Cl)c3ccccc3c1n2CCCC(=O)NO | 4.66

Now from value to compound:

Row | IC50 [µM] | Compound
29 | > 10 | COc1ccc2c(c1)c1nc(Cl)c3ccccc3c1n2CCCn1c(=O)c(F)cn([C@@H]2O[C@H](CO)[C@@H](O)[C@H]2O)c1=O
30 | 3.1 | COc1ccc2c(c1)c1nc(Cl)c3ccccc3c1n2CCCN1CCCC(O)C1 (stereo not drawn)
31 | > 10 | COc1ccc2c(c1)c1nc(Cl)c3ccccc3c1n2CCCN1CCC(CO)CC1
32 | > 10 | COc1ccc2c(c1)c1nc(Cl)c3ccccc3c1n2CCCn1c(=O)[nH]cc(F)c1=O

Test system: PC-3
Assay: Antiproliferative activity against human PC-3 cells assessed as inhibition of cell growth incubated for 96 hrs by MTT based ELISA
Format: functional
Details: PC-3, 96 h

Row | Compound | IC50 [µM]
33 | CCOc1ccc2c(c1)c1ncc3ccccc3c1n2CCCC(=O)NO | 1.55
34 | COc1ccc2c(c1)c1nc(Cl)c3ccccc3c1n2CCCN1CCN(C(C)C)CC1 | 1.12
35 | O=C(CCCn1c2ccccc2c2nc(Cl)c3ccccc3c21)NO | 3.14
36 | CCOc1ccc2c(c1)c1nc(Cl)c3ccccc3c1n2CCCC(=O)NO | 2.58

Results, then the compound that gave them:

Row | IC50 [µM] | Compound
37 | > 10 | COc1ccc2c(c1)c1nc(Cl)c3ccccc3c1n2CCCn1c(=O)c(F)cn([C@@H]2O[C@H](CO)[C@@H](O)[C@H]2O)c1=O
38 | 3.26 | COc1ccc2c(c1)c1nc(Cl)c3ccccc3c1n2CCCN1CCCC(O)C1 (stereo not drawn)
39 | > 10 | COc1ccc2c(c1)c1nc(Cl)c3ccccc3c1n2CCCN1CCC(CO)CC1
40 | > 10 | COc1ccc2c(c1)c1nc(Cl)c3ccccc3c1n2CCCn1c(=O)[nH]cc(F)c1=O

Test system: MCF7
Assay: Antiproliferative activity against human MCF7 cells assessed as inhibition of cell growth incubated for 96 hrs by MTT based ELISA
Format: functional
Details: MCF7, 96 h

Row | Compound | IC50 [µM]
41 | CCOc1ccc2c(c1)c1ncc3ccccc3c1n2CCCC(=O)NO | 0.97
42 | COc1ccc2c(c1)c1nc(Cl)c3ccccc3c1n2CCCN1CCN(C(C)C)CC1 | 1.76
43 | O=C(CCCn1c2ccccc2c2nc(Cl)c3ccccc3c21)NO | 3.87
44 | CCOc1ccc2c(c1)c1nc(Cl)c3ccccc3c1n2CCCC(=O)NO | 3.73

Results, then the compound that gave them:

Row | IC50 [µM] | Compound
45 | > 10 | COc1ccc2c(c1)c1nc(Cl)c3ccccc3c1n2CCCn1c(=O)c(F)cn([C@@H]2O[C@H](CO)[C@@H](O)[C@H]2O)c1=O
46 | 3.61 | COc1ccc2c(c1)c1nc(Cl)c3ccccc3c1n2CCCN1CCCC(O)C1 (stereo not drawn)
47 | > 10 | COc1ccc2c(c1)c1nc(Cl)c3ccccc3c1n2CCCN1CCC(CO)CC1
48 | > 10 | COc1ccc2c(c1)c1nc(Cl)c3ccccc3c1n2CCCn1c(=O)[nH]cc(F)c1=O
